The values that follow come from patent US20250084026A1, “NOVEL SALT OF 1-SULFONYL PYRROLE DERIVATIVE, PREPARATION METHOD THEREOF AND PHARMACEUTICAL COMPOSITION COMPRISING THEREOF” (ILDONG PHARMACEUTICAL CO., LTD., priority 2021, published 2025).

In brackets after ≈: the same amount, converted by molar mass. Read-outs that look alike come from different tables or passages of the source. Some results are limits rather than exact numbers.

Common to all, as to format: physicochemical
The nature of data set [1]: Solubility in bio-relevant media (water, SGF, FaSSIF, FeSSIF), HPLC. To be noted: for solubility at 1 h / solubility at 24 h: thermodynamic from solid; for solubility at 1 h: read-out: Solubility-1 h concentration; for solubility at 24 h: read-out: Solubility-24 h concentration. The protocol:
Solubility in bio-relevant media, i.e., stimulated gastric fluid (SGF), fasted state simulated intestinal fluid (FaSSIF), and fed state simulated intestinal fluid (FeSSIF) of the free base and the fumarate salt of 1-(5-(2-fluorophenyl)-4-methoxy-1-((6-methoxypyridin-3-yl) sulfonyl)-1H-pyrrole-3-yl)-N-methylmethanamine that was confirmed through the salt screening analysis result, was confirmed.
Buffers for the bio-relevant media were prepared as follows. • Water: Laboratory Milli-Q purified water. • SGF (Stimulated Gastric Fluid): 2.0 g of sodium chloride and 7 mL of hydrochloric acid dissolved in 1000 ml of water was used. • FaSSIF (Fasted State Simulated Intestinal Fluid): A commercial product purchased from Bio-Relevant Company and manufactured according to instructions was used. • FeSSIF (Fed State Simulated Intestinal Fluid): A commercial product purchased from Bio-Relevant Company and prepared according to instructions was used.
For the experiment, about 10 mg of compound (10 mg as free base form) was weighed into each glass vial and then 1 mL of medium was added (final concentration of 10 mg/mL). Then, the sample was continuously stirred in a magnetic stirrer at 37° C. at a speed of 200 rpm. After stirring for 1 hour and 24 hours, 0.5 mL of the sample solution was transferred to a 1.5 mL centrifuge tube and centrifuged at 12,000 rpm for 5 minutes. The supernatant was diluted with suitable methanol and analyzed by HPLC.
The free base was selected as a standard sample to quantify the solubility, and about 10 mg of the free base was weighed into a 25 mL flask and dissolved in methanol to the curve.
The residue of the compound in water was tested by XRPD to determine the solid state.

Data set [2] can be described thus: Drug stability under stress condition, 60° C. open, XRPD and HPLC. To be noted: for HPLC peak RT 7.423 min, RRT 0.74 / HPLC peak RT 10.063 min, RRT 1.00 / HPLC peak RT 10.277 min, RRT 1.02: in %; for Stability under harsh conditions (in words): up to Week 2. How it is done: 10 mg and 40 mg of the free base and the fumaric acid salt of 1-(5-(2-fluorophenyl)-4-methoxy-1-((6-methoxypyridin-3-yl) sulfonyl)-1H-pyrrol-3-yl)-N-methylmethanamine were weighed into each vial and stored under stress conditions to investigate stability.
The stress conditions are as follows: • high temperature open room condition: 60° C.; • The bottle neck of the vial was wrapped with aluminum foil with pinholes to avoid contamination, and the samples were analyzed by XRPD and HPLC at the onset (Day 0), week 1 and week 2.

Data set [3] is described as follows: Thermal gravimetric analysis (TGA) weight loss. The protocol:
Using Pyris 1 TGA manufactured by PerkinElmer, Inc., a compound sample (about 5 mg) was weighed in pans under nitrogen purge at a ramp rate of 20° C./min over the range of 30 to 300° C.

Data set [4] is described as follows: Drug stability at 40° C., 75% RH for 8 weeks (XRPD, TGA, HPLC). The protocol:
In order to confirm the stability of the fumarate salt of 1-(5-(2-fluorophenyl)-4-methoxy-1-((6-methoxypyridin-3-yl) sulfonyl)-1H-pyrrole-3-yl)-N-methylmethanamine prepared under an isopropyl alcohol solvent, water sorption and/or hydrate formation were confirmed under conditions of 75% RH at 40° C. for 8 weeks.
To proceed with the experiment, 100 mg of the fumarate salt of 1-(5-(2-fluorophenyl)-4-methoxy-1-((6-methoxypyridin-3-yl) sulfonyl)-1H-pyrrole-3-yl)-N-methylmethanamine was put in a vial with a wide mouth (Experimental group 1), and the other sample was put in a vial that is double-packed with a polyethylene bag (Experimental group 2). Then, both samples were placed inside a 40° C., 75% RH chamber and monitored at 2-week intervals.
The XRPD values were checked every two weeks to identify whether or not there was a change in the crystalline form, and the results are shown in Table 11.

Data set [5] can be described thus: Dynamic vapor sorption (DVS) hygroscopicity. To be noted: 25° C., 0%~95%~0% RH cycle; compared to the known hygroscopicity evaluation standard. The protocol: Using DVS intrinsic manufactured by Surface Measurement Systems Ltd, about 20 mg of the sample was tested for water sorption/desorption profiles at 25° C. under a 0%˜95%˜0% relative humidity (RH) cycle using the following parameters.
Equilibrium: dm/dt: 0.01%/min.
Range of RH (%) measurement step: 0%˜95%˜0%; RH (%) measurement step: 5%

Setting [6] is: Week 2, 4, 6 and 8, Experimental groups 1 and 2.

As for `CNCc1cn(S(=O)(=O)c2ccc(OC)nc2)c(-c2ccccc2F)c1OC` [Free base, 1-(5-(2-fluorophenyl)-4-methoxy-1-((6-methoxypyridin-3-yl)sulfonyl)-1H-pyrrol-3-yl)-N-methylmethanamine], the Solubility-24 h concentration in data set [1] (water, 37° C., 24 h) was found to be 8630 µg/mL (≈ 21.3 mM). For the same compound, in data set [2] (60° C., Week 1), the “% Impurities” value was found to be 20.94%; the Assay % was found to be 67.44%; the “Crystalline form (XRPD)” value is reported as “Melted”; the HPLC peak RT 6.797 min, RRT 0.68 was determined as 0.43%. For the same compound, in data set [2] (60° C., Week 1), the HPLC peak RT 7.563 min, RRT 0.75 was 1%; the HPLC peak RT 9.327 min, RRT 0.93 turned out to be 0.18%; the HPLC peak RT 10.813 min, RRT 1.07 was determined as 0.57%; the “HPLC peak RT 7.423 min, RRT 0.74” value is 18.86. In data set [2] (60° C., Week 1), the “HPLC peak RT 10.063 min, RRT 1.00” value is on record as 79.06 and the “HPLC peak RT 10.277 min, RRT 1.02” value amounted to 9.95. Besides, in data set [2] (60° C., Week 2), the “% Impurities” value is reported as 35.00%; the Assay % was 60.29%; the “Crystalline form (XRPD)” value is “Melted”; the HPLC peak RT 6.797 min, RRT 0.68 was 0.31%. Also, in data set [2] (60° C., Week 2), the HPLC peak RT 7.563 min, RRT 0.75 was 4.12%; the HPLC peak RT 9.327 min, RRT 0.93 stood at 0.14%; the HPLC peak RT 10.813 min, RRT 1.07 came out at 0.53%; the “HPLC peak RT 7.423 min, RRT 0.74” value turned out to be 13.51. In addition, in data set [2] (60° C., Week 2), the “HPLC peak RT 10.063 min, RRT 1.00” value amounted to 65.0 and the “HPLC peak RT 10.277 min, RRT 1.02” value was 16.38. Besides, the “Stability under harsh conditions (in words)” value in data set [2] (60° C.) is on record as “high impurity content”. Moreover, in data set [2] (Day 0), the “% Impurities” value came to 0.85%; the Assay % was determined as 100.00%; the “Crystalline form (XRPD)” value is on record as “Free form”; the HPLC peak RT 9.327 min, RRT 0.93 came out at 0.18%. In data set [2] (Day 0), the HPLC peak RT 10.813 min, RRT 1.07 came to 0.66% and the “HPLC peak RT 10.063 min, RRT 1.00” value was found to be 99.15.

Turning to `CNCc1cn(S(=O)(=O)c2ccc(OC)nc2)c(-c2ccccc2F)c1OC.O=P(O)(O)O` [phosphate salt, Phosphate Salt of 1-(5-(2-fluorophenyl)-4-methoxy-1-((6-methoxypyridin-3-yl)sulfonyl)-1H-pyrrol-3-yl)-N-methylmethanamine], in data set [3], the “Hygroscopicity (from TGA, in words)” value is “high hygroscopicity” and the TGA weight loss amounted to 1.0189%.

For `CNCc1cn(S(=O)(=O)c2ccc(OC)nc2)c(-c2ccccc2F)c1OC.O=C(O)/C=C/C(=O)O` [Fumarate salt, fumarate salt of 1-(5-(2-fluorophenyl)-4-methoxy-1-((6-methoxypyridin-3-yl)sulfonyl)-1H-pyrrole-3-yl)-N-methylmethanamine], the “Solubility (in words)” value in data set [1] (all of SGF, FaSSIF, and FeSSIF) was “excellent solubility”; in data set [1] (fasted state simulated intestinal fluid (FaSSIF)) it was “very good solubility”. Moreover, the solubility at 1 h in data set [1] (simulated gastric fluid, SGF, 37° C.) was over 10000 µg/mL; in data set [1] (FaSSIF, 37° C.), 7910 µg/mL; in data set [1] (FeSSIF, 37° C.), 4500 µg/mL; in data set [1] (water, 37° C.), 6390 µg/mL. The solubility at 24 h is over 10000 µg/mL in data set [1] (simulated gastric fluid, SGF, 37° C., 24 h); 7580 µg/mL in data set [1] (FaSSIF, 37° C., 24 h); 4440 µg/mL in data set [1] (FeSSIF, 37° C., 24 h); 5320 µg/mL in data set [1] (water, 37° C., 24 h). Moreover, the “Polymorphic change vs initial XRPD of crystalline Form I” value in data set [4] (8 weeks) was “no polymorphic change”. The “Whether or not XRPD value changed” value is given as “Same” in data set [4] (Experimental group 1 (vial with a wide mouth), Week 2); “Same” in data set [4] (Experimental group 1 (vial with a wide mouth), Week 2 (second line so printed, r7)); “Same” in data set [4] (Experimental group 1 (vial with a wide mouth), Week 6); “Same” in data set [4] (Experimental group 1 (vial with a wide mouth), Week 8); “Same” in data set [4] (Experimental group 2 (vial double-packed with polyethylene bag), Week 2); “Same” in data set [4] (Experimental group 2 (vial double-packed with polyethylene bag), Week 2 (second line so printed, r7)). In addition, the “Whether or not XRPD value changed” value in data set [4] (Experimental group 2 (vial double-packed with polyethylene bag), Week 6) is “Same”; in data set [4] (Experimental group 2 (vial double-packed with polyethylene bag), Week 8) it was “Same”. Also, the “Hygroscopicity (TGA analysis, in words)” value in data set [4] (setting [6]) is given as “significantly low hygroscopicity”. Also, the “Purity (HPLC analysis, in words)” value in data set [4] (setting [6]) is “high purity”. Moreover, the “TGA weight loss (% w/w)” value in data set [3] (120° C., listed as Example 3) is reported as ~0.0307%,. Besides, the “Hygroscopicity (DVS, in words)” value in data set [5] was “very low hygroscopicity”. The “% Impurities” value is 0.76% in data set [2] (60° C., Week 1); 0.80% in data set [2] (60° C., Week 2); 0.77% in data set [2] (Day 0). In addition, the Assay % in data set [2] (60° C., Week 1) turned out to be 105.69%; in data set [2] (60° C., Week 2), 94.74%; in data set [2] (Day 0) it was 100.00%. Also, the “Crystalline form (XRPD)” value in data set [2] (60° C., Week 1) is listed as “Crystalline”; in data set [2] (60° C., Week 2) it was “Crystalline”; in data set [2] (Day 0), “Crystalline”. Further, the HPLC peak RT 9.327 min, RRT 0.93 in data set [2] (60° C., Week 1) stood at 0.17%; in data set [2] (60° C., Week 2) it was 0.18%; in data set [2] (Day 0), 0.17%. Also, the HPLC peak RT 10.813 min, RRT 1.07 came out at 0.59% in data set [2] (60° C., Week 1); 0.62% in data set [2] (60° C., Week 2); 0.6% in data set [2] (Day 0). The “HPLC peak RT 10.063 min, RRT 1.00” value in data set [2] (60° C., Week 1) is listed as 99.24; in data set [2] (60° C., Week 2), 99.20; in data set [2] (Day 0), 99.23. In addition, the “Stability under harsh conditions (in words)” value in data set [2] (60° C.) was “excellent stability”.
